Measured values published in patent US20160024204A1, “METHODS FOR PRODUCING ANTIBODIES” (BRISTOL-MYERS SQUIBB COMPANY, priority 2013, published 2016).

Tested on: P. pastoris
Assay: Effects of hydroxyurea on cell growth and antibody productivity in P. pastoris fermentation (Run 01MAY11)
Conditions: 2.6-2.8 g/L hydroxyurea; for WB Titer (anti-IL-6 antibody): age 90 h, lots T5, T6 and T10

NC(=O)NO [Hydroxyurea]
WCW reached and maintained by hydroxyurea treatment lots (control lots ~400 g/Kg) (after peak cell density at 30-40 hours, FIG. 8): ~450 g/kg | WB Titer (anti-IL-6 antibody): 75.0 ± 2.7 Normalized | WB Titer (anti-IL-6 antibody) (listed as hydroxyurea): 75 Normalized
